# Results taken from article PMC8284453 (Antimicrobial Agents and Chemotherapy, 2021).
# “And” between values parts separate entries of the source, which are not always exact repeats. Equal entries are not always repeated. Where two headings read alike, the source gives them in different places.
# Columns and labels:
# [1] = tested on: Enterobacterales expressing class D oxacillinases (OXA-48/48-like); assay: organism not typed; format: cell-based, E. coli, K. pneumoniae
# [2] = tested on: Enterobacterales expressing class A carbapenemases (KPC); assay: organism not typed; format: cell-based, K. pneumoniae, E. coli, E. cloacae, Klebsiella oxytoca
# [3] = 25 isolates, BLI fixed at 4 μg/ml, AMC 2:1
smiles,measurement,setting,value
C[C@@H](O)[C@H]1C(=O)N2C(C(=O)O)=C(SC3CN(C4=NCCS4)C3)[C@H](C)[C@H]12 [Tebipenem],MIC50,[1]; [3],4 µg/mL and 8 µg/mL
same,MIC90,[1]; [3],16 µg/mL and 32 µg/mL
same,MIC,[1]; E. coli 664507 (OXA-48),4 µg/mL
same,MIC,[1]; E. coli 664516 (OXA-48),8 µg/mL
same,MIC,[1]; E. coli 664520 (OXA-48),4 µg/mL
same,MIC,[1]; E. coli 664522 (OXA-48),8 µg/mL
same,MIC,[1]; E. coli 664523 (OXA-48),4 µg/mL
same,MIC,[1]; E. coli 664524 (OXA-48),4 µg/mL
same,MIC,[1]; E. coli 664525 (OXA-48),8 µg/mL
same,MIC,[1]; E. coli 664526 (OXA-48),4 µg/mL
same,MIC,[1]; E. coli 664528 (OXA-48),4 µg/mL
same,MIC,[1]; E. coli 787112 (OXA-48),8 µg/mL
same,MIC,[1]; E. coli SI-422 (OXA-48),1 µg/mL
same,MIC,[1]; E. coli VER (OXA-48),1 µg/mL
same,MIC,[1]; K. pneumoniae 6299 (OXA-163),4 µg/mL
same,MIC,"[1]; K. pneumoniae 515746 (OXA-48), first line",1 µg/mL
same,MIC,"[1]; K. pneumoniae 515746 (OXA-48), second line",0.5 µg/mL
same,MIC,[1]; K. pneumoniae 664438 (OXA-48),8 µg/mL
same,MIC,[1]; K. pneumoniae 664439 (OXA-48),4 µg/mL
same,MIC,[1]; K. pneumoniae 664509 (OXA-48),≥ 64 µg/mL
same,MIC,[1]; K. pneumoniae 664518 (OXA-48),4 µg/mL
same,MIC,[1]; K. pneumoniae 722870 (OXA-48),1 µg/mL
same,MIC,[1]; K. pneumoniae BAH (OXA-204),0.5 µg/mL
same,MIC,[1]; K. pneumoniae DEL (OXA-232),≥ 64 µg/mL
same,MIC,[1]; K. pneumoniae DOV (OXA-48),0.5 µg/mL
same,MIC,[1]; K. pneumoniae KIRK (OXA-162),1 µg/mL
same,MIC,[1]; K. pneumoniae SI-C17 (OXA-48),16 µg/mL
same,MIC50,[2],≥ 64 µg/mL
same,MIC90,[2],≥ 64 µg/mL
same,MIC50,[2]; [3],≥64 µg/mL
same,MIC90,[2]; [3],≥64 µg/mL
same,MIC,[2]; E. cloacae 847426 (KPC),≥ 64 µg/mL
same,MIC,[2]; E. cloacae 847429 (KPC),≥ 64 µg/mL
same,MIC,"[2]; E. cloacae OIMGH49 (p99 AmpC, ACT-2, KPC-2, TEM-1)",32 µg/mL
same,MIC,[2]; E. coli 786978 (KPC),≥ 64 µg/mL
same,MIC,[2]; K. oxytoca 847537 (KPC),≥ 64 µg/mL
same,MIC,[2]; K. oxytoca 847539 (KPC),8 µg/mL
same,MIC,"[2]; K. pneumoniae 155140 (AmpC, KPC-2, SHV-12, TEM-1)",≥ 64 µg/mL
same,MIC,[2]; K. pneumoniae 845661 (KPC),≥ 64 µg/mL
same,MIC,[2]; K. pneumoniae 845662 (KPC),≥ 64 µg/mL
same,MIC,[2]; K. pneumoniae 845665 (KPC),≥ 64 µg/mL
same,MIC,[2]; K. pneumoniae 845667 (KPC),≥ 64 µg/mL
same,MIC,[2]; K. pneumoniae 845670 (KPC),32 µg/mL
same,MIC,[2]; K. pneumoniae 845904 (KPC),≥ 64 µg/mL
same,MIC,[2]; K. pneumoniae 847204 (KPC),≥ 64 µg/mL
same,MIC,[2]; K. pneumoniae 847375 (KPC),≥ 64 µg/mL
same,MIC,[2]; K. pneumoniae 847378 (KPC),≥ 64 µg/mL
same,MIC,[2]; K. pneumoniae 847379 (KPC),16 µg/mL
same,MIC,[2]; K. pneumoniae 847383 (KPC),≥ 64 µg/mL
same,MIC,[2]; K. pneumoniae 847384 (KPC),≥ 64 µg/mL
same,MIC,[2]; K. pneumoniae 847387 (KPC),≥ 64 µg/mL
same,MIC,[2]; K. pneumoniae 847747 (KPC),≥ 64 µg/mL
same,MIC,[2]; K. pneumoniae 848832 (KPC),≥ 64 µg/mL
same,MIC,[2]; K. pneumoniae 848844 (KPC),≥ 64 µg/mL
same,MIC,[2]; K. pneumoniae 897067 (KPC),32 µg/mL
same,MIC,"[2]; K. pneumoniae UMM (KPC-2, SHV-5, TEM-1)",32 µg/mL
